In ChEMBL document CHEMBL4619729, “In silico and in vitro studies on interaction of novel non-imidazole histamine H3R antagonists with CYP3A4” (Bioorg Med Chem Lett, 2020):

molecular target: T1, CYP3A4 (Homo sapiens, UniProt P08684); test: Inhibition of CYP3A4 (unknown origin) assessed as inhibition of conversion of beetle D-luciferin to D-luciferin at 10 uM by luminescent P450-Glo assay relative to control; format: ADME; conditions: probe beetle D-luciferin
T1 sequence (P08684 whole entry): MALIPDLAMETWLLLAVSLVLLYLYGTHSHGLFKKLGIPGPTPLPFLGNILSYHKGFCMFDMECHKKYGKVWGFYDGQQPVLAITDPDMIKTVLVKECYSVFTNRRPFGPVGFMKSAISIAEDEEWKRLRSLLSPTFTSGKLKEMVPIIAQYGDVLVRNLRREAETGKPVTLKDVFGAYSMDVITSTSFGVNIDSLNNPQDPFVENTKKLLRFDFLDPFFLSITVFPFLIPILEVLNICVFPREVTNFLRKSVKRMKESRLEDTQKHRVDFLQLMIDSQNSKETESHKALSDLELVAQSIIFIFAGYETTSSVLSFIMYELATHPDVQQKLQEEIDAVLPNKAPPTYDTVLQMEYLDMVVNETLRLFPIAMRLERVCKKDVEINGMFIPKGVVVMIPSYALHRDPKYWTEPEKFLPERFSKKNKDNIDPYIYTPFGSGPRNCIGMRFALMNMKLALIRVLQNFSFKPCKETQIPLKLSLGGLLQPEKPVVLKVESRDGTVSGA

Row | inhibition at 10 µM [%] | SMILES
1 | 8 | CCC(C)(C)c1ccc(OCCCN2CCCCC2)cc1
2 | 41 | CCC(C)(C)c1ccc(OCCCCCCCCN2CCCCCC2)cc1
3 | 17 | Fc1ccc(OCCCCCCN2CCCCCC2)cc1
4 | 13 | c1ccc(-c2ccc(OCCCCCCN3CCCCCC3)cc2)cc1
5 | 19 | c1ccc(-c2cccc(OCCCCCCN3CCCCCC3)c2)cc1
6 | 5 | CCC(C)(C)c1ccc(OCCCCN2CCCCCC2)cc1
7 | 19 | CC(C)(C)c1ccc(OCCCCCCN2CCCCCC2)cc1
8 | 61 | CC(C)(C)c1ccc(OCCCN2CCCCC2)cc1
9 | 13 | CCC(C)(C)c1ccc(OCCCN2CCCCCC2)cc1
10 | 23 | Clc1ccc(OCCCCCCN2CCCCCC2)cc1
11 | 46 | c1ccc2c(OCCCCCCN3CCCCCC3)cccc2c1
12 | 4 | CC1CCCN(CCCCCCCOc2ccc(Cl)cc2)C1 (stereo not drawn)
13 | 38 | CCC(C)(C)c1ccc(OCCCCCCCN2CCCCCC2)cc1

molecular target: Cytochrome P450 3A4 (Homo sapiens, UniProt P08684); test: Activation of CYP3A4 (unknown origin) assessed as activation of conversion of beetle D-luciferin to D-luciferin at 10 uM by luminescent P450-Glo assay relative to control; format: ADME; conditions: not given
Sequence (P08684 whole entry): as above

Row | Activity [%] | SMILES
14 | 713 | O=C(c1ccccc1)c1cccc(OCCCCCCN2CCCCCC2)c1
15 | 18 | CCC(C)(C)c1ccc(OCCCCCCN2CCCCCC2)cc1

molecular target: T1, CYP3A4; test: Activation of human recombinant CYP3A4 assessed as activation of conversion of beetle D-luciferin to D-luciferin at 10 uM preincubated for 10 mins followed by substrate addition and measured after 50 mins in presence of NADPH by CYP450-Glo assay relative to control; format: ADME; conditions: recombinant CYP3A4, probe beetle D-luciferin, read-out: Activity

Row | activity at 50 min, 10 µM [%] | SMILES
16 | 14 | c1ccc2cc(OCCCCCCN3CCCCCC3)ccc2c1

molecular target: T2, Histamine H3 receptor (Homo sapiens, UniProt Q9Y5N1); test: Displacement of [3H]-N-alpha-methylhistamine from human recombinant full length H3R expressed in HEK293 cell membranes by Microbeta scintillation counting method; conditions: not given
T2 sequence (Q9Y5N1 whole entry): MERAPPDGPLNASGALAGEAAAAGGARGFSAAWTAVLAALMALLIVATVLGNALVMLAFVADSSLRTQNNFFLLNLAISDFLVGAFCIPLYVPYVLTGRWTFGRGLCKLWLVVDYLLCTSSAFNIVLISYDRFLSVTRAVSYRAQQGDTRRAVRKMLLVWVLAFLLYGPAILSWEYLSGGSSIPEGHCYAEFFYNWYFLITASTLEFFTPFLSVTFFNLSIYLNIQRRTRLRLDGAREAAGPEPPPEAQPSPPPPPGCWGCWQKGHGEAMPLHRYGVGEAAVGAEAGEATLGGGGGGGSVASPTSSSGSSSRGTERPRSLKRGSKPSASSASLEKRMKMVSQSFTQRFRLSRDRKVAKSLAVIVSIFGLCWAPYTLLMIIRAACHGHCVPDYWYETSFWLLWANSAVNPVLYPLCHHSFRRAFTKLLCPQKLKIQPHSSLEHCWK

Row | Ki [nM] | SMILES
17 | 41 | O=C(c1ccccc1)c1cccc(OCCCCCCN2CCCCCC2)c1

molecular target: T2, Histamine H3 receptor; test: Binding affinity to H3R (unknown origin); conditions: not given

Row | Ki [nM] | SMILES
18 | 829 | CC(C)(C)c1ccc(OCCCCCCN2CCCCCC2)cc1
